In one test the test system is red blood cell GSH. Description: Red blood cell GSH concentration and ASR in nondiabetic elderly humans after 2-week supplementation (Example 4). The format is in vivo. Conditions: after 2-week oral supplementation. As to the method:
(§1) Eight nondiabetic elderly humans were studied in the basal state, and after 2-week oral supplementation with either n-acetylcysteine alone, glycine alone, or both supplements, with a 2-week washout period in-between. […] Plasma lipid peroxides were measured as a marker of ongoing damage due to oxidative stress. Eight younger adult subjects were also recruited as controls.

The next test concerns Plasma lipid peroxides. Description: Plasma lipid peroxides in nondiabetic elderly humans after 2-week supplementation (Example 4). The class given is in vivo. Conditions: after 2-week oral supplementation. As to the method:
as §1

The next test has as its system red cell GSH. The experiment in a line: Red cell GSH concentration, FSR and ASR in diabetics after 2-week supplementation (Example 3). The format is in vivo, humans. The conditions noted are these: after 2-week dietary supplementation, Mean±SE. As to the method:
(§2) Eight diabetics were studied before and after 2-week dietary supplementation with either n-acetylcysteine (NAC), glycine, or both. Subjects received infusions of ^2H2-glycine to measure the concentration, fractional synthetic rates (FSR) and absolute synthetic rates (ASR) of red cell GSH. Plasma ROOH and glucose levels were measured. Eight non-diabetic subjects were studied as controls.

The next test has as its system lipid peroxides (ROOH). The experiment in a line: Plasma ROOH and glucose in diabetics after 2-week supplementation (Example 3). Conditions: after 2-week dietary supplementation. The class given is in vivo, humans. As to the method:
as §2

SMILES strings stand for the structures.

Experimental findings from patent US9084760B2, “Increasing glutathione levels for therapy” (priority 2008, dated 2015) are described below.

In the test with red blood cell GSH, `NCC(=O)O` [glycine] gave a GSH concentration of 1.21±0.27 mmol/L RBC and a GSH-ASR of 0.71 ± 0.05 mmol/L/day. The “concentrations of lipid peroxides” value with Plasma lipid peroxides was found to be 3.57±1.13 mmol/L ROOH.

Consider `CC(=O)N[C@@H](CS)C(=O)O` [n-acetylcysteine], for which, in the test with red cell GSH, the “GSH ASR” value came out at 0.93 ± 0.18 mmol/L/day, the “GSH FSR” value is on record as 61±2 %/d and the GSH concentration was determined as 1.61±0.15 mmol/LRBC. Further, the glycemia result with lipid peroxides (ROOH) is reported as “remained unchanged”. Also, the ROOH concentrations in the test on lipid peroxides (ROOH) (plasma) is 5.78±0.78. In the test with red blood cell GSH, this compound returned a GSH concentration of 1.37±0.30 mmol/L RBC and a GSH-ASR of 0.92 ± 0.23 mmol/L/day. In the test with Plasma lipid peroxides, the “concentrations of lipid peroxides” value was 3.22±1.29 mmol/L ROOH.
